PubChem BioAssay AID330 (DTP/NCI, 2004)
Several values for one entry are separate records, joined by “and”; a condition that tells them apart may be missing. Equal entries are not always repeated. Toxic doses and inconclusive results are not listed.

Tested on: P388 leukemia ip, CD2F1 mice, survival T/C
Assay: NCI In Vivo Anticancer Drug Screen. Data for tumor model P388 Leukemia (intraperitoneal) in CD2F1 (CDF1) mice
Details: endpoint: median survival time, higher = longer survival
Method in brief: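 Mice carrying the transplanted tumor received test compound or vehicle. Survival was recorded in each group, and the value is the treated-group measurement divided by that of the vehicle-treated control group.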

[1] = dose: 25.0 mg/kg/injection, schedule: Q01DX009 (ip), vehicle: saline with Tween-80
[2] = dose: 50.0 mg/kg/injection, schedule: Q01DX009 (ip), vehicle: saline with Tween-80
[3] = dose: 100.0 mg/kg/injection, schedule: Q01DX009 (ip), vehicle: saline with Tween-80
[4] = dose: 60.0 mg/kg/injection, schedule: Q01DX005 (ip), vehicle: saline with Tween-80
[5] = dose: 120.0 mg/kg/injection, schedule: Q01DX005 (ip), vehicle: saline with Tween-80
[6] = dose: 240.0 mg/kg/injection, schedule: Q01DX005 (ip), vehicle: saline with Tween-80
[7] = dose: 50.0 mg/kg/injection, schedule: Q01DX009 (ip), vehicle: saline
[8] = dose: 100.0 mg/kg/injection, schedule: Q01DX009 (ip), vehicle: saline
[9] = dose: 50.0 mg/kg/injection, schedule: Q01DX005 (ip), vehicle: saline with Tween-80
[10] = dose: 100.0 mg/kg/injection, schedule: Q01DX005 (ip), vehicle: saline with Tween-80
[11] = dose: 200.0 mg/kg/injection, schedule: Q01DX005 (ip), vehicle: saline with Tween-80
[12] = dose: 200.0 mg/kg/injection, schedule: Q01DX009 (ip), vehicle: saline with Tween-80

Structure (SMILES): CN(c1ccc(Cc2ccc(N(C)S(C)(=O)=O)cc2)cc1)S(C)(=O)=O
- T/C (dose: 50.0 mg/kg/injection, schedule: Q04DX002 (ip), vehicle: saline with Tween-80): 110 % of control
- T/C (dose: 100.0 mg/kg/injection, schedule: Q04DX002 (ip), vehicle: saline with Tween-80): 101 % of control
- T/C (dose: 200.0 mg/kg/injection, schedule: Q04DX002 (ip), vehicle: saline with Tween-80): 94 % of control
- T/C (dose: 400.0 mg/kg/injection, schedule: Q04DX002 (ip), vehicle: saline with Tween-80): 92 % of control

Structure (SMILES): COC(=O)c1nn(-c2ccc(Cl)cc2)c2nc3ccccc3c-2c1C(=O)OC
- T/C (dose: 100.0 mg/kg/injection, schedule: Q01DX001 (ip), vehicle: saline with Tween-80): 96 % of control
- T/C (dose: 200.0 mg/kg/injection, schedule: Q01DX001 (ip), vehicle: saline with Tween-80): 115 % of control
- T/C (dose: 400.0 mg/kg/injection, schedule: Q01DX001 (ip), vehicle: saline with Tween-80): 96 % of control

Structure (SMILES): Cn1c(=O)c2conc2n(-c2ccc(Cl)cc2)c1=O
- T/C [1]: 100 % of control
- T/C [2]: 103 % of control
- T/C [3]: 95 % of control

Structure (SMILES): COc1cc([C@H]2c3cc4c(cc3CC3COC(=O)[C@@H]32)OCO4)cc(Br)c1O (some centres not stated)
- T/C (dose: 15.0 mg/kg/injection, schedule: Q01DX005 (ip), vehicle: saline with Tween-80): 101 % of control
- T/C (dose: 30.0 mg/kg/injection, schedule: Q01DX005 (ip), vehicle: saline with Tween-80): 101 % of control
- T/C [4]: 99 % of control and 104 % of control
- T/C [5]: 110 % of control
- T/C [6]: 110 % of control

Structure (SMILES): CCCCCCCCC(=O)CCCC
- T/C [2]: 109 % of control
- T/C [3]: 122 % of control
- T/C (dose: 100.0 mg/kg/injection, schedule: Q04DX003 (ip), vehicle: saline): 100 % of control
- T/C (dose: 200.0 mg/kg/injection, schedule: Q04DX003 (ip), vehicle: saline): 113 % of control

Structure (SMILES): COS(C)=O (configuration not stated)
- T/C [7]: 99 % of control
- T/C [8]: 99 % of control

Structure (SMILES): CC(OS(C)(=O)=O)/C(Br)=C(/Br)C(C)OS(C)(=O)=O (configuration not stated)
- T/C (dose: 100.0 mg/kg/injection, schedule: Q01DX001 (ip), vehicle: Klucel (hydroxypropylcellulose) (HPC)): 158 % of control
- T/C (dose: 200.0 mg/kg/injection, schedule: Q01DX001 (ip), vehicle: Klucel (hydroxypropylcellulose) (HPC)): 204 % of control
- T/C (dose: 400.0 mg/kg/injection, schedule: Q01DX001 (ip), vehicle: Klucel (hydroxypropylcellulose) (HPC)): 230 % of control

Structure (SMILES): Nc1nc(N)c2c(n1)CCCC2
- T/C (dose: 6.25 mg/kg/injection, schedule: Q04DX003 (ip), vehicle: saline with Tween-80): 105 % of control
- T/C (dose: 12.5 mg/kg/injection, schedule: Q04DX003 (ip), vehicle: saline with Tween-80): 100 % of control
- T/C (dose: 25.0 mg/kg/injection, schedule: Q04DX003 (ip), vehicle: saline with Tween-80): 100 % of control

Structure (SMILES): CN1CC=C(c2ccccc2)C(O)C1 (configuration not stated)
- T/C (dose: 12.5 mg/kg/injection, schedule: Q04DX002 (ip), vehicle: saline): 116 % of control
- T/C (dose: 15.0 mg/kg/injection, schedule: Q01DX005 (ip), vehicle: saline): 100 % of control
- T/C (dose: 25.0 mg/kg/injection, schedule: Q04DX002 (ip), vehicle: saline): 101 % of control
- T/C (dose: 30.0 mg/kg/injection, schedule: Q01DX005 (ip), vehicle: saline): 99 % of control
- T/C (dose: 50.0 mg/kg/injection, schedule: Q04DX002 (ip), vehicle: saline): 101 % of control
- T/C (dose: 60.0 mg/kg/injection, schedule: Q01DX005 (ip), vehicle: saline): 117 % of control and 97 % of control

Structure (SMILES): CCCNC(=O)NC1CC(=O)N(CCC)C1=O (configuration not stated)
- T/C [9]: 93 % of control
- T/C [10]: 100 % of control
- T/C [11]: 102 % of control

Structure (SMILES): CC1(/C=N/NC(N)=O)NC(=O)NC1=O (configuration not stated)
- T/C [9]: 96 % of control
- T/C [10]: 103 % of control
- T/C [11]: 96 % of control

Structure (SMILES): CCCCCC(Cn1ccnc1)c1ccc(Cl)cc1Cl (configuration not stated)
- T/C (dose: 100.0 mg/kg/injection, schedule: Q04DX003 (ip), vehicle: saline with Tween-80): 99 % of control
- T/C (dose: 200.0 mg/kg/injection, schedule: Q04DX003 (ip), vehicle: saline with Tween-80): 94 % of control
- T/C (dose: 400.0 mg/kg/injection, schedule: Q04DX003 (ip), vehicle: saline with Tween-80): 89 % of control

Structure (SMILES): O=C(CC(=O)c1ccc(Cl)s1)C(=O)Nc1cccc(C(F)(F)F)c1
- T/C [4]: 105 % of control
- T/C [5]: 102 % of control
- T/C [6]: 106 % of control

Structure (SMILES): CC1(C)CC(=O)c2ccccc21
- T/C (dose: 3.12 mg/kg/injection, schedule: Q01DX005 (ip), vehicle: saline with Tween-80): 106 % of control
- T/C (dose: 6.25 mg/kg/injection, schedule: Q01DX005 (ip), vehicle: saline with Tween-80): 103 % of control
- T/C (dose: 12.5 mg/kg/injection, schedule: Q01DX005 (ip), vehicle: saline with Tween-80): 113 % of control
- T/C (dose: 25.0 mg/kg/injection, schedule: Q01DX005 (ip), vehicle: saline with Tween-80): 113 % of control

Structure (SMILES): Cc1ccc(C(=O)[O][Hg][CH2]C2COC([CH2][Hg][O]C(=O)c3ccc(C)cc3)CO2)cc1 (configuration not stated)
- T/C [1]: 116 % of control
- T/C [2]: 113 % of control
- T/C [3]: 100 % of control

Structure (SMILES): O=C(/C(Br)=C/c1ccccc1)/C(Br)=C/c1ccccc1
- T/C (dose: 12.5 mg/kg/injection, schedule: Q01DX001 (ip), vehicle: saline with Tween-80): 100 % of control
- T/C (dose: 25.0 mg/kg/injection, schedule: Q01DX001 (ip), vehicle: saline with Tween-80): 100 % of control
- T/C (dose: 50.0 mg/kg/injection, schedule: Q01DX001 (ip), vehicle: saline with Tween-80): 88 % of control

Structure (SMILES): COC(=O)/C(C1=C(Br)C(=O)C(C)=C(Br)C1=O)=C1/CCCN1
- T/C (dose: 9.37 mg/kg/injection, schedule: Q01DX005 (ip), vehicle: Klucel (hydroxypropylcellulose) (HPC)): 112 % of control
- T/C (dose: 9.37 mg/kg/injection, schedule: Q04DX002 (ip), vehicle: Klucel (hydroxypropylcellulose) (HPC)): 101 % of control
- T/C (dose: 18.75 mg/kg/injection, schedule: Q01DX005 (ip), vehicle: Klucel (hydroxypropylcellulose) (HPC)): 117 % of control
- T/C (dose: 18.75 mg/kg/injection, schedule: Q04DX002 (ip), vehicle: Klucel (hydroxypropylcellulose) (HPC)): 92 % of control
- T/C (dose: 37.5 mg/kg/injection, schedule: Q01DX005 (ip), vehicle: Klucel (hydroxypropylcellulose) (HPC)): 112 % of control
- T/C (dose: 37.5 mg/kg/injection, schedule: Q04DX002 (ip), vehicle: Klucel (hydroxypropylcellulose) (HPC)): 100 % of control
- T/C (dose: 75.0 mg/kg/injection, schedule: Q04DX002 (ip), vehicle: Klucel (hydroxypropylcellulose) (HPC)): 104 % of control

Structure (SMILES): COc1cc2c(cc1OC)C1CC3(CCN1CC2)CC(=O)NC3=O (configuration not stated)
- T/C (dose: 50.0 mg/kg/injection, schedule: Q01DX005 (ip), vehicle: saline): 97 % of control
- T/C (dose: 100.0 mg/kg/injection, schedule: Q01DX005 (ip), vehicle: saline): 99 % of control
- T/C (dose: 200.0 mg/kg/injection, schedule: Q01DX005 (ip), vehicle: saline): 90 % of control

Structure (SMILES): CC(=O)Nc1c([N+](=O)[O-])cc2c3c(cccc13)CC2
- T/C [3]: 86 % of control
- T/C [12]: 90 % of control

Structure (SMILES): Clc1cc(Cl)c(Cl)nn1
- T/C (dose: 25.0 mg/kg/injection, schedule: Q01DX009 (ip), vehicle: Klucel (hydroxypropylcellulose) (HPC)): 98 % of control
- T/C (dose: 50.0 mg/kg/injection, schedule: Q01DX009 (ip), vehicle: Klucel (hydroxypropylcellulose) (HPC)): 94 % of control
- T/C (dose: 100.0 mg/kg/injection, schedule: Q01DX009 (ip), vehicle: Klucel (hydroxypropylcellulose) (HPC)): 92 % of control

Structure (SMILES): NC(CS)C(=O)O.[Cl-].[Cl-].[Cl-].[Cl-].[Pt+2] (configuration not stated)
- T/C (dose: 12.5 mg/kg/injection, schedule: Q01DX009 (ip), vehicle: saline): 104 % of control
- T/C (dose: 25.0 mg/kg/injection, schedule: Q01DX009 (ip), vehicle: saline): 95 % of control
- T/C [7]: 95 % of control
- T/C [8]: 99 % of control
- T/C (dose: 200.0 mg/kg/injection, schedule: Q01DX009 (ip), vehicle: saline): 95 % of control

Structure (SMILES): O=c1sc2ccccc2nc1NNc1ccccc1
- T/C [9]: 90 % of control
- T/C [10]: 90 % of control

Structure (SMILES): CC(C)OC1CC(C)(C)c2c(-c3ccccc3)nn(-c3ccccc3)c2O1 (configuration not stated)
- T/C [2]: 109 % of control
- T/C [3]: 98 % of control
- T/C [12]: 107 % of control

Structure (SMILES): Cc1cccc(C2=Nc3ccccc3N3CC=CC=C23)c1
- T/C [2]: 110 % of control
- T/C [3]: 97 % of control
- T/C [12]: 92 % of control

Structure (SMILES): Cc1cccc(C(=O)C(CN(C)C)CN(C)C)c1
- T/C (dose: 12.5 mg/kg/injection, schedule: Q01DX005 (ip), vehicle: saline): 112 % of control
- T/C (dose: 25.0 mg/kg/injection, schedule: Q01DX005 (ip), vehicle: saline): 114 % of control

Structure (SMILES): O=C1C=C(O)C2CCCCC2N1 (configuration not stated)
- T/C (dose: 50.0 mg/kg/injection, schedule: Q01DX005 (ip), vehicle: Klucel (hydroxypropylcellulose) (HPC)): 99 % of control
- T/C (dose: 100.0 mg/kg/injection, schedule: Q01DX005 (ip), vehicle: Klucel (hydroxypropylcellulose) (HPC)): 95 % of control
